Assay [1] deals with G protein-coupled receptor kinase 3 (Homo sapiens) (UniProt P35626). In words: Inhibition of GRK3 (unknown origin) assessed as residual activity at 1000 nM by KINOMEscan analysis relative to control.
The target of assay [2] is T1, Testis-specific serine/threonine-protein kinase 1 (Homo sapiens) (UniProt Q9BXA7).
T1 sequence (whole entry): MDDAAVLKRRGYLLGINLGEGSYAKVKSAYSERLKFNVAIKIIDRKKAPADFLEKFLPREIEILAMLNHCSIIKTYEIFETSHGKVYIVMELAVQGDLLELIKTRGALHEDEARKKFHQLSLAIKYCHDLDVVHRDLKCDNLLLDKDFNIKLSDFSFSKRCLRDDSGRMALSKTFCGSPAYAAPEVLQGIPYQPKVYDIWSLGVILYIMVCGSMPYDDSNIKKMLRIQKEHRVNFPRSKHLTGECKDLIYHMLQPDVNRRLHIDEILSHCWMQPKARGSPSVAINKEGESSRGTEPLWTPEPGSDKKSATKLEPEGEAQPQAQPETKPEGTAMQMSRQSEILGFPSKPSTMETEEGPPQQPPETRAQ
As to the kind of experiment: Inhibition of TSSK1B (unknown origin) assessed as residual activity at 100 nM by KINOMEscan analysis relative to control.

The target in assay [3] is Cyclin-dependent kinase 7 (Homo sapiens) (UniProt P50613). In words: Inhibition of CDK7 (unknown origin) assessed as residual activity at 100 nM by KINOMEscan analysis relative to control.
The target in assay [4] is Hepatocyte growth factor receptor (Homo sapiens) (UniProt P08581). In words: Inhibition of MET (unknown origin) assessed as residual activity at 100 nM by KINOMEscan analysis relative to control.
For assay [5], the target named is T2, Serine/threonine-protein kinase Nek10 (Homo sapiens) (UniProt Q6ZWH5).
T2 sequence (whole entry): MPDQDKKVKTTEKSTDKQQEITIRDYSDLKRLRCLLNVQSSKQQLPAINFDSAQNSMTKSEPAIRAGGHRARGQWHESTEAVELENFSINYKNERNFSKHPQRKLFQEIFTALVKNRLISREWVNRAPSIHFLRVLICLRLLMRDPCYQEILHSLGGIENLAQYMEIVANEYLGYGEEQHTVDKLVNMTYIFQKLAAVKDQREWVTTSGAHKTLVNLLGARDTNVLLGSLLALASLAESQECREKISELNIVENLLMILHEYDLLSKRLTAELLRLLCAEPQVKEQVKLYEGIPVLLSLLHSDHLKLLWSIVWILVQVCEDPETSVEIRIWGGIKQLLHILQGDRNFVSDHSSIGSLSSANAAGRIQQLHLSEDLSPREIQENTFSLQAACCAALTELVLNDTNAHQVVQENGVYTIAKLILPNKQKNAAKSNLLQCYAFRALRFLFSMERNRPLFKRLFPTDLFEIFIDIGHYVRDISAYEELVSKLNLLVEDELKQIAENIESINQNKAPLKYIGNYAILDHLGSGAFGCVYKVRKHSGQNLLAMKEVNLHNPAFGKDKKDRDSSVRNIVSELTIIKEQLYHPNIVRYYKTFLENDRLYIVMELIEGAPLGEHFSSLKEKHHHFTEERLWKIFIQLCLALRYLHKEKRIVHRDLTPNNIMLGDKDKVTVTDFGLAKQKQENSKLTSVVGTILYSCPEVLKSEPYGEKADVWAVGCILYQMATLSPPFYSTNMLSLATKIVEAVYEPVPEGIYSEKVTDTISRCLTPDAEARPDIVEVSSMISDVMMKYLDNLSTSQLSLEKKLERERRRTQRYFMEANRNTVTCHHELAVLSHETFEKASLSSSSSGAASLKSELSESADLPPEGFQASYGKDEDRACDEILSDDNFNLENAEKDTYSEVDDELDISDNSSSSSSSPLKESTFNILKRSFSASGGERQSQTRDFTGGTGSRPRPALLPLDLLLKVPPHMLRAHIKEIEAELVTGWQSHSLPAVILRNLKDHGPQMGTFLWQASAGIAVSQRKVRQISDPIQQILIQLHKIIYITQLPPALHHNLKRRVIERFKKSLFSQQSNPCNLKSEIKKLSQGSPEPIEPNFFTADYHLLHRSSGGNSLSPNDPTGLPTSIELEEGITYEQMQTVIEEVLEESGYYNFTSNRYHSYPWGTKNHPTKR
As to the kind of experiment: Inhibition of NEK10 (unknown origin) assessed as residual activity at 100 nM by KINOMEscan analysis relative to control.

Assay [6] addresses STE20/SPS1-related proline-alanine-rich protein kinase (Homo sapiens) (UniProt Q9UEW8). As to the kind of experiment: Inhibition of STK39 (unknown origin) assessed as residual activity at 100 nM by KINOMEscan analysis relative to control.
Assay [7] concerns the target T3, Serine/threonine-protein kinase tousled-like 1 (Homo sapiens) (UniProt Q9UKI8).
T3 sequence (whole entry): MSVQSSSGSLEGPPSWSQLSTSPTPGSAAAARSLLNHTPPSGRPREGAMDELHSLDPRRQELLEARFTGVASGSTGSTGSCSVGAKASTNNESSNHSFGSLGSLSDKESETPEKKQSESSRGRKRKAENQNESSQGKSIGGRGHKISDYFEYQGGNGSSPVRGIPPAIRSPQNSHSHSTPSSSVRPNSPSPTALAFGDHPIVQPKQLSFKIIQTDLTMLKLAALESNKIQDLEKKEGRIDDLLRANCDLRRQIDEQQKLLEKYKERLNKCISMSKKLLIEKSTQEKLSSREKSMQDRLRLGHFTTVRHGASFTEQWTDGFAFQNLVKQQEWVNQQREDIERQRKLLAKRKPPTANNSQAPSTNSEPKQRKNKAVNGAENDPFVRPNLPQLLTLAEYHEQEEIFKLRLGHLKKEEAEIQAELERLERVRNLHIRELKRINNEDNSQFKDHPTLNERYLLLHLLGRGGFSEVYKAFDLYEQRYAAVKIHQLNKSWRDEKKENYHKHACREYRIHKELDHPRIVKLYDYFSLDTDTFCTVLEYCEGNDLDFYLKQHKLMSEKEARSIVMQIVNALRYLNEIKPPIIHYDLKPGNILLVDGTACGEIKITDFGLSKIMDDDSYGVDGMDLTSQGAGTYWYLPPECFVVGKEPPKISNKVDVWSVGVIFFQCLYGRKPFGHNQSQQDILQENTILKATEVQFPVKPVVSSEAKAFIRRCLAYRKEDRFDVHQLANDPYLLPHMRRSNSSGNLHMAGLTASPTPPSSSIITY
As to the kind of experiment: Inhibition of TLK1 (unknown origin) assessed as residual activity at 100 nM by KINOMEscan analysis relative to control.

In assay [8] the target is Platelet-derived growth factor receptor alpha (Homo sapiens) (UniProt P16234). As to the kind of experiment: Inhibition of PDGFRA (unknown origin) assessed as residual activity at 100 nM by KINOMEscan analysis relative to control.
In assay [9] the target is Serine/threonine-protein kinase PAK 3 (Homo sapiens) (UniProt O75914). As to the kind of experiment: Inhibition of PAK3 (unknown origin) assessed as residual activity at 100 nM by KINOMEscan analysis relative to control.
Chain of Serine/threonine-protein kinase PAK 3 (Homo sapiens) (O75914 whole entry, looked up): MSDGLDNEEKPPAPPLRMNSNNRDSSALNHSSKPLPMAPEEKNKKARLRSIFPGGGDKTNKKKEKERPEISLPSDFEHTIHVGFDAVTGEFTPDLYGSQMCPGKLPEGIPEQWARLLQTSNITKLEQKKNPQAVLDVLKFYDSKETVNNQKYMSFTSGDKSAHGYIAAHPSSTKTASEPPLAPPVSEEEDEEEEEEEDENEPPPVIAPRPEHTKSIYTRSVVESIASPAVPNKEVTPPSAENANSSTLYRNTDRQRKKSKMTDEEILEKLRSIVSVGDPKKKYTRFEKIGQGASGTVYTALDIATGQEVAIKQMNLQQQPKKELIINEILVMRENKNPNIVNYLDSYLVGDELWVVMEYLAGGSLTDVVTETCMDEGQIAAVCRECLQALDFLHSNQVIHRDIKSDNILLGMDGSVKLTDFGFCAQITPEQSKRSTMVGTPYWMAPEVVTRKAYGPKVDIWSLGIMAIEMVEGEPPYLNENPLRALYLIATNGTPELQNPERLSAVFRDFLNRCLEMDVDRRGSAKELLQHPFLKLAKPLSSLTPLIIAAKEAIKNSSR

Chain of G protein-coupled receptor kinase 3 (Homo sapiens) (P35626 whole entry): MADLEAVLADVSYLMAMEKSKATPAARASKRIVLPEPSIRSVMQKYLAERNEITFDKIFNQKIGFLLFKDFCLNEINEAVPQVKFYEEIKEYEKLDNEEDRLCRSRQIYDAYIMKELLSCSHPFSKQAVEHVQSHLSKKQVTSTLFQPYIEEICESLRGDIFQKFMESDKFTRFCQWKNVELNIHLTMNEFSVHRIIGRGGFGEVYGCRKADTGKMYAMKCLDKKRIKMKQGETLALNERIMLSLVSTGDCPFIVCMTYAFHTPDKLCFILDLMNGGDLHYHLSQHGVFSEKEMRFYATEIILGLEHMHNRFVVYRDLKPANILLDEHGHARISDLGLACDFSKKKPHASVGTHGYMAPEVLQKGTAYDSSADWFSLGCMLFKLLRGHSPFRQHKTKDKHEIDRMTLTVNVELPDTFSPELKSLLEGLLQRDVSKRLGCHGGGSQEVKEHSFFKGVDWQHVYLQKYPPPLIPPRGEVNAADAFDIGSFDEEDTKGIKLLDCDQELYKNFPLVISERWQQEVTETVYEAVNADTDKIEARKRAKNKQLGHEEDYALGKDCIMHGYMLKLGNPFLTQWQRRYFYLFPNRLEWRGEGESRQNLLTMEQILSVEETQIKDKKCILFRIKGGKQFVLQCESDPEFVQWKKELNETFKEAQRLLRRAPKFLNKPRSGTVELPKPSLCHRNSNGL
Chain of Platelet-derived growth factor receptor alpha (Homo sapiens) (P16234 whole entry): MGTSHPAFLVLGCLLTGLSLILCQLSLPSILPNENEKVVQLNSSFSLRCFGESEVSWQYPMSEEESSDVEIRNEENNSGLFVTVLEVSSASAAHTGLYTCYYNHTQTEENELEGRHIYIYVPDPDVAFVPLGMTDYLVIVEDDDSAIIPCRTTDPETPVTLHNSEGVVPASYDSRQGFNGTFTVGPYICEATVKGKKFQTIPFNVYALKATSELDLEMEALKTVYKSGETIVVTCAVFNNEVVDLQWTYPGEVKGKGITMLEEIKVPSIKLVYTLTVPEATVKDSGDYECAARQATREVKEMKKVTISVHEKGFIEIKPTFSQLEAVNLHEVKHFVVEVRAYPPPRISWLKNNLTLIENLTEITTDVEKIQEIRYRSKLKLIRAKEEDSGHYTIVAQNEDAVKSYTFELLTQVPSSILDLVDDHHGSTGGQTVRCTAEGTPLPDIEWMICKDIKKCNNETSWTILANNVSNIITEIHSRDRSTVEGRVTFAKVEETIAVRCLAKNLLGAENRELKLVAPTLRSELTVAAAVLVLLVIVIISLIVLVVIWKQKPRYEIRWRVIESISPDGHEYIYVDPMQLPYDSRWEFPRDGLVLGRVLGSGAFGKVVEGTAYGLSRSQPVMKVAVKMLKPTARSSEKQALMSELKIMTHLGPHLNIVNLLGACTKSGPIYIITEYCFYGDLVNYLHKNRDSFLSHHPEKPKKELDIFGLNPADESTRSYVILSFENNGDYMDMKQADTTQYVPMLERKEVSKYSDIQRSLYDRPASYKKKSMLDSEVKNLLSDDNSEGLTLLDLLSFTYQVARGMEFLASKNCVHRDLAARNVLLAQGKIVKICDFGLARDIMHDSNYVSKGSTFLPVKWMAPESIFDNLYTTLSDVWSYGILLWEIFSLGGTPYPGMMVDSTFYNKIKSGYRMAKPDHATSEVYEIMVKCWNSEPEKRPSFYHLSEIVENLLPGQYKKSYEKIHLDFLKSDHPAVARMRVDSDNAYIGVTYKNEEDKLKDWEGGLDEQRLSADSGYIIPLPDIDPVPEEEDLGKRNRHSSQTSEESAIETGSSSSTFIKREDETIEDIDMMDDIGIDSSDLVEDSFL
Chain of Cyclin-dependent kinase 7 (Homo sapiens) (P50613 whole entry): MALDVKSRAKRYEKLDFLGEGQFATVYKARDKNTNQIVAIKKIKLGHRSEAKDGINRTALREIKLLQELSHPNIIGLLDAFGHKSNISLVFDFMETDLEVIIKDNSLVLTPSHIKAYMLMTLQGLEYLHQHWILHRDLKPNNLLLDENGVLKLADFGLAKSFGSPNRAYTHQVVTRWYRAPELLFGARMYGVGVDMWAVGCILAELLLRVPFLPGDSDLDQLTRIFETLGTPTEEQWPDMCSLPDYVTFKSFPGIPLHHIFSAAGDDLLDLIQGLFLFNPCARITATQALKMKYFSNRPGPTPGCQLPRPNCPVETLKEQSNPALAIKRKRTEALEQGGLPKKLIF
Chain of Hepatocyte growth factor receptor (Homo sapiens) (P08581 whole entry): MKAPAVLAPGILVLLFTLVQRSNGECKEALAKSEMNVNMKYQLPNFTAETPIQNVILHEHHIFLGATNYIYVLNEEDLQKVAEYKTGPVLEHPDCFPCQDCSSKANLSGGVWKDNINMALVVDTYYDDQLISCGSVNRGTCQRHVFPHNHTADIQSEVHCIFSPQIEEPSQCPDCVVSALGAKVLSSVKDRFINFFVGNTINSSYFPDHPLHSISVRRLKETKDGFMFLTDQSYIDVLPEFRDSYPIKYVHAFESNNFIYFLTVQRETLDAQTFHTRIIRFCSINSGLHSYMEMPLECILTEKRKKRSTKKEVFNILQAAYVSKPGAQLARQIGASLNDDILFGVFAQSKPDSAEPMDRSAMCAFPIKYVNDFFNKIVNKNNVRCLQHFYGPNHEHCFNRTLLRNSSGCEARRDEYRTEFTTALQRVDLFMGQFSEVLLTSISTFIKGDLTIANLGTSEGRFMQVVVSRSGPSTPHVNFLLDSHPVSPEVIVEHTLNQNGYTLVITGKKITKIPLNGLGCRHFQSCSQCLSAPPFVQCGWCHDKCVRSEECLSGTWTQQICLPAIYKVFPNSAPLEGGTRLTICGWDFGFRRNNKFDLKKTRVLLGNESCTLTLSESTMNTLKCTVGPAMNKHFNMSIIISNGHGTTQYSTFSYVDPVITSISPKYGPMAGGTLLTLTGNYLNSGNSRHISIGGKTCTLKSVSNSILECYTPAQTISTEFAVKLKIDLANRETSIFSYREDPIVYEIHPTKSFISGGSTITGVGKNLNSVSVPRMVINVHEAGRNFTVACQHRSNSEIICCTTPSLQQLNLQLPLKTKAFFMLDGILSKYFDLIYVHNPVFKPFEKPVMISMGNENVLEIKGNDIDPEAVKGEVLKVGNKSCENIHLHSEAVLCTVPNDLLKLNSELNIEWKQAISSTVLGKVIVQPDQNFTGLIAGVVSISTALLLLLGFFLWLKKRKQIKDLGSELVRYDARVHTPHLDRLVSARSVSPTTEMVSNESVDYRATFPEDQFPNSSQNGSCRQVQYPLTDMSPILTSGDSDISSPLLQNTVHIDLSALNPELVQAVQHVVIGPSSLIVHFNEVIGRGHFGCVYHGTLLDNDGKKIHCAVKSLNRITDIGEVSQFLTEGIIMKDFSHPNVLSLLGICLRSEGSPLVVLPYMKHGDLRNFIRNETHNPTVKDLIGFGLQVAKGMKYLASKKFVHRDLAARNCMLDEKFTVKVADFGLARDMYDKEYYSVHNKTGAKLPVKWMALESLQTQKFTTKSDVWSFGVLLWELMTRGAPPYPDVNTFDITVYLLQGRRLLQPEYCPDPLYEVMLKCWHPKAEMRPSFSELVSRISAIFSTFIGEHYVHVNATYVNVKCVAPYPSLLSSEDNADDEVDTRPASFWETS

For the compound `COc1cc2nc(C)nc(N[C@H](C)c3cccc(-c4cn[nH]c4)c3)c2cc1OC`, the Activity in assay [1] stood at 76%.

`COc1cc2ncnc(N[C@H](C)c3cccc4ccccc34)c2cc1OC`: the Activity in [2] amounted to 84%; in [3] it was 88%; in assay [4], 100%; in assay [5], 75%; in assay [6], 93%; in [7] it was 79%. Moreover, the Activity stood at 100% in [8] and 74% in assay [9].
